Some test systems named below: A498; HCT-116; HCT-15; HL-60; K562; MDA-MB-435; MDA-N; NCI-H226; NCI/ADR-RES; OVCAR-3; OVCAR-4; PC-3; RXF 393; SF-268; SF-539; SN12C; SR; SW-620; T47D; TK-10.
Holding throughout (assay): inhibition of tumour cell growth, NCI panel, 48 h

This is an account of results in ChEMBL document CHEMBL1201862, “PubChem BioAssay data set” (2004).

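Dose response: 5 concentrations. Exposure: 48 h. Format: 96-well plates. Endpoint: linear interpolation; highest concentration if not reached. At the GI50, growth is halved.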 Calls of active or inactive are those of the source. Rule as the data show it: active = GI50 up to about 1.1 µM and inactive = higher.

On to `C[C@@H]1[C@@H](c2ccccc2)O[B-](c2ccccc2)(c2ccccc2)[N+]1(C)C`, for which the GI50 in the assay with A498 was 67.8 µM (inactive); with HCT-116, 59.3 µM (inactive); in the assay on HCT-15, 58.7 µM; in the assay with HL-60, 66.1 µM (inactive); in the assay on K562, 33 µM (inactive); in the assay on MDA-MB-435, 98.6 µM (inactive). In addition, the GI50 in the assay with MDA-N was 54.1 µM (inactive); with NCI-H226, 41 µM (inactive); in the assay with NCI/ADR-RES, > 100 µM (inactive); with OVCAR-3, 70.5 µM (inactive); in the assay on OVCAR-4, 56.4 µM (inactive); with PC-3, 22.8 µM (inactive). The GI50 in the assay with RXF 393 was 34.7 µM (inactive); in the assay with SF-268, > 100 µM (inactive); with SF-539, 55.7 µM (inactive); in the assay with SN12C it was > 100 µM (inactive); in the assay with SR, 53 µM (inactive); with SW-620, 62.7 µM (inactive). Moreover, the values for the GI50 in the assay on T47D and with TK-10 were 54.5 µM (inactive) and 54.7 µM (inactive), respectively.

On to `COc1cc2cc(C(=O)N3C[C@H](CCl)c4c3cc(O)c3ccccc43)[nH]c2c(OC)c1OC`, for which the GI50 is 0.248 µM (active) in the assay with A498; 0.147 µM (active) in the assay with HCT-116; 0.192 µM in the assay on HCT-15; < 0.01 µM (active) in the assay on HL-60; 0.25 µM (active) with K562; 0.222 µM (active) with MDA-MB-435. The GI50 was 1.29 µM (inactive) in the assay with MDA-N; 0.12 µM (active) in the assay on NCI-H226; 0.136 µM (active) in the assay on NCI/ADR-RES; 0.279 µM (active) in the assay on OVCAR-3; 0.261 µM (active) with OVCAR-4; 0.267 µM (active) in the assay on PC-3. Also, the GI50 with RXF 393 is 0.0459 µM (active); in the assay on SF-268 it was 0.117 µM (active); in the assay on SF-539, 0.055 µM (active); in the assay on SN12C, 0.0133 µM (active); with SR, 0.0224 µM (active); in the assay on SW-620, 0.174 µM (active). Also, the values for the GI50 in the assay on T47D and with TK-10 were 1.71 µM (inactive) and 0.277 µM (active), respectively.

As to `COc1ccc(C(=O)NC2=C(Cl)C(=O)c3ccccc3C2=O)cc1`, the GI50 was 14.6 µM (inactive) in the assay on A498; 0.406 µM (active) in the assay on HCT-116; 0.482 µM in the assay on HCT-15; 0.336 µM (active) with HL-60; 1.36 µM (inactive) with K562; 2.22 µM (inactive) in the assay on MDA-MB-435. The GI50 is 2.75 µM (inactive) in the assay with MDA-N; 1.82 µM (inactive) with NCI-H226; 2.07 µM (inactive) in the assay with NCI/ADR-RES; 1.14 µM (inactive) in the assay on OVCAR-3; 2.17 µM (inactive) in the assay with OVCAR-4; 1.65 µM (inactive) in the assay with PC-3. Besides, the GI50 in the assay on RXF 393 is 0.995 µM (active); in the assay on SF-268, 4.69 µM (inactive); in the assay on SF-539 it was 1.66 µM (inactive); with SN12C, 2.77 µM (inactive); in the assay with SR, 1.61 µM (inactive); with SW-620, 1.1 µM (active). The GI50 is 0.929 µM (active) in the assay on T47D and 3.22 µM (inactive) in the assay on TK-10.

Regarding `COc1ccc(N2C(=O)/C(=C/c3ccc(N(CCC#N)CCC#N)cc3C)N=C2c2cc([N+](=O)[O-])ccc2Cl)cc1`, the GI50 in the assay with A498 was 5.41 µM (inactive); in the assay on HCT-116, 3.94 µM (inactive); in the assay with HCT-15, 3.84 µM; in the assay with HL-60, 3.62 µM (inactive); with K562, 2.62 µM (inactive); with MDA-MB-435 it was 1.96 µM (inactive). Moreover, the GI50 with MDA-N was 1.56 µM (inactive); in the assay with NCI-H226, 17 µM (inactive); in the assay with NCI/ADR-RES, > 10 µM (inactive); in the assay on OVCAR-3, 3.35 µM (inactive); with OVCAR-4 it was > 46.5 µM (inactive); in the assay on PC-3 it was 4.7 µM (inactive). The GI50 is 4.61 µM (inactive) in the assay on RXF 393; 11 µM (inactive) in the assay with SF-268; 3.37 µM (inactive) with SF-539; 6.31 µM (inactive) in the assay with SN12C; 3.24 µM (inactive) with SR; 4.55 µM (inactive) in the assay on SW-620. Also, the figures for the GI50 in the assay with T47D and in the assay with TK-10 were > 89.9 µM (inactive) and 21.6 µM (inactive), respectively.

Turning to `CCOC(=O)CCC(C(=O)OCC)n1nc2ccc(Nc3c(C)[n+]([O-])c4cc(Cl)ccc4[n+]3[O-])cc2n1` (stereo not given), the GI50 is > 100 µM (inactive) in the assay on A498; 30.1 µM (inactive) in the assay on HCT-116; 88.1 µM in the assay on HCT-15; 96.8 µM (inactive) in the assay with HL-60; 82 µM (inactive) with K562; 69.7 µM (inactive) in the assay on MDA-MB-435. For the same compound, the GI50 was 98.4 µM (inactive) with MDA-N; 62.4 µM (inactive) in the assay on NCI-H226; > 100 µM (inactive) in the assay with NCI/ADR-RES; > 100 µM (inactive) in the assay with OVCAR-3; 65.8 µM (inactive) in the assay on OVCAR-4; 76.7 µM (inactive) in the assay on PC-3. The GI50 with RXF 393 was 30.8 µM (inactive); in the assay on SF-268 it was 39.1 µM (inactive); with SF-539, > 100 µM (inactive); in the assay with SN12C, 73.3 µM (inactive); in the assay with SR, 10.1 µM (inactive); in the assay on SW-620, > 100 µM (inactive). Moreover, the GI50 is 32.9 µM (inactive) in the assay on T47D and > 100 µM (inactive) in the assay with TK-10.

For the compound `CCSc1nn(-c2c3ccccc3nc3ccccc23)c(=S)s1`, the GI50 in the assay on A498 was > 100 µM (inactive); in the assay on HCT-116, > 100 µM (inactive); with HCT-15, > 100 µM; in the assay with HL-60 it was > 100 µM (inactive); with K562 it was > 100 µM (inactive); with MDA-MB-435, > 100 µM (inactive). For the same compound, the GI50 in the assay on MDA-N, with NCI-H226, in the assay on NCI/ADR-RES, with OVCAR-3, with OVCAR-4 and in the assay with PC-3 was > 100 µM (inactive) each time. Moreover, the GI50 in the assay on RXF 393, in the assay on SF-268, in the assay with SF-539, with SN12C, in the assay with SR and with SW-620 was > 100 µM (inactive) each time. Besides, the GI50 with T47D and with TK-10 was > 100 µM (inactive) throughout.

`C=CCSC1=N/C(=C\c2ccco2)C(=O)N1CC=C`: the GI50 with A498 is 27.2 µM (inactive); with HCT-116, 52.1 µM (inactive); in the assay with HCT-15, 57.9 µM; with HL-60 it was 26.8 µM (inactive); with K562 it was 35.2 µM (inactive); with MDA-MB-435 it was 52.5 µM (inactive). The GI50 in the assay with MDA-N is 41.8 µM (inactive); with NCI-H226, 34.4 µM (inactive); with NCI/ADR-RES, 85.7 µM (inactive); in the assay on OVCAR-3 it was 95.3 µM (inactive); in the assay with OVCAR-4, 38 µM (inactive); in the assay on PC-3, 46.7 µM (inactive). The GI50 with RXF 393 is 22.5 µM (inactive); in the assay with SF-268, > 100 µM (inactive); in the assay on SF-539, > 100 µM (inactive); with SN12C it was > 100 µM (inactive); with SR it was 25.4 µM (inactive); in the assay with SW-620, > 100 µM (inactive). The GI50 with T47D is 28.2 µM (inactive); in the assay with TK-10 it was > 100 µM (inactive).

Regarding `CC1=C2C3=C(C)C(=O)C(C)(C)CC[C@@]3(C)[C@]2(C)CCC(C)(C)C1=O`, the GI50 is > 100 µM (inactive) in the assay with A498; > 100 µM (inactive) with HCT-116; > 100 µM in the assay with HCT-15; > 100 µM (inactive) in the assay with HL-60; > 100 µM (inactive) in the assay with K562; > 100 µM (inactive) with MDA-MB-435. The GI50 in the assay with MDA-N, with NCI-H226, in the assay with NCI/ADR-RES, in the assay with OVCAR-3, in the assay with OVCAR-4 and in the assay on PC-3 was > 100 µM (inactive) throughout. Also, the GI50 in the assay on RXF 393, in the assay with SF-268, with SF-539, in the assay on SN12C, in the assay with SR and with SW-620 was > 100 µM (inactive) in each case. Further, the GI50 with T47D and in the assay with TK-10 was > 100 µM (inactive) in each case.

With `COC(=O)c1cc2c(cc1C(=O)OC)[C@@]1(C)CCCC(C)(C)C1CC2` (stereo not given in full), the GI50 in the assay on A498 is 15.6 µM (inactive); with HCT-116 it was 17.9 µM (inactive); in the assay with HCT-15, 17.1 µM; in the assay on HL-60 it was 8.77 µM (inactive); in the assay on K562, 13.8 µM (inactive); in the assay on MDA-MB-435, 30.2 µM (inactive). Further, the GI50 is 21.9 µM (inactive) with MDA-N; 17.4 µM (inactive) in the assay on NCI-H226; 16.3 µM (inactive) with NCI/ADR-RES; 10.2 µM (inactive) in the assay on OVCAR-3; 22.4 µM (inactive) in the assay with OVCAR-4; 14.8 µM (inactive) in the assay on PC-3. Besides, the GI50 was 10.1 µM (inactive) with RXF 393; 13.9 µM (inactive) in the assay on SF-268; 22 µM (inactive) with SF-539; 19.3 µM (inactive) in the assay on SN12C; 15.1 µM (inactive) in the assay on SR; 18.7 µM (inactive) in the assay with SW-620. Moreover, the values for the GI50 in the assay on T47D and in the assay on TK-10 were 0.508 µM (active) and 19.5 µM (inactive), respectively.

Regarding `c1ccc([P+](CCCCCCCC[P+](c2ccccc2)(c2ccccc2)c2ccccc2)(c2ccccc2)c2ccccc2)cc1`, the GI50 with A498 was > 31.8 µM (inactive); in the assay with HCT-116, 1.87 µM (inactive); in the assay on HCT-15 it was > 100 µM; with HL-60, 1.03 µM (active); in the assay with K562 it was 3.6 µM (inactive); with MDA-MB-435, 4.92 µM (inactive). For the same compound, the GI50 was 6.89 µM (inactive) in the assay on MDA-N; 3.61 µM (inactive) with NCI-H226; > 100 µM (inactive) with NCI/ADR-RES; 3.83 µM (inactive) in the assay with OVCAR-3; 6.04 µM (inactive) in the assay on OVCAR-4; 1.19 µM (inactive) in the assay with PC-3. In addition, the GI50 is 31.6 µM (inactive) in the assay with RXF 393; 3.5 µM (inactive) with SF-268; 2.37 µM (inactive) with SF-539; 3.73 µM (inactive) in the assay on SN12C; 23 µM (inactive) in the assay with SR; 6.81 µM (inactive) in the assay with SW-620. Moreover, the GI50 with T47D was 5.16 µM (inactive); with TK-10 it was 18 µM (inactive).
